Consider 20 molecules from ChEMBL document CHEMBL4400577, “Fragment-based Discovery of a Small-Molecule Protein Kinase C-iota Inhibitor Binding Post-kinase Domain Residues” (ACS Med Chem Lett, 2019).

Data set [1] deals with T1, Protein kinase C iota type (Homo sapiens, UniProt P41743).
T1 sequence (P41743 whole entry): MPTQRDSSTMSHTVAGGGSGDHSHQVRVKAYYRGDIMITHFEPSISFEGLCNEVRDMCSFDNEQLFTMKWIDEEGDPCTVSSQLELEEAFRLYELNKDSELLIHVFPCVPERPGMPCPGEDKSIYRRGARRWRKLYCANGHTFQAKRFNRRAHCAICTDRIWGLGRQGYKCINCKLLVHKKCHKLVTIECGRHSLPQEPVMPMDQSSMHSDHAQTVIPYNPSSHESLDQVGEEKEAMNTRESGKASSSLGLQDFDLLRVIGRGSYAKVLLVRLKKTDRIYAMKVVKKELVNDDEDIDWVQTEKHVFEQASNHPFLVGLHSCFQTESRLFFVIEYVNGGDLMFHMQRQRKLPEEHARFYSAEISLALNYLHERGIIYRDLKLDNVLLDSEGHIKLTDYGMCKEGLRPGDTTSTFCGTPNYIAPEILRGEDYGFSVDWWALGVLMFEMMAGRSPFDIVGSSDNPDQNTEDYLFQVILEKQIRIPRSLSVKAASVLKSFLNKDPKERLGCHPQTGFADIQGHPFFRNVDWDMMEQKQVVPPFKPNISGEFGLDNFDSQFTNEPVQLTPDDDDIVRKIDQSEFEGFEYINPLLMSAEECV
As to the kind of experiment: Inhibition of recombinant human full length N-terminal GST-fused PKCi (1 to 587 residues) expressed in baculovirus expression system using 5-FAM-RFARKGSLRQKNV as substrate measured after 60 mins by caliper microfluidic mobility shift assay.

A short description of data set [2]: Solubility of the compound at pH 7.4. In kind it is physicochemical. The note with it: buffer.
For data set [3], the system named is Huh-7. Nature of the data set: Antiproliferative activity against human HuH7 cells assessed as cell growth inhibition measured after 72 hrs by CellTiter-Glo luminescent assay. In kind it is functional. As to conditions: Huh-7, 72 h. A general note: In ATP-based viability assays light output follows the ATP content of the culture.
Data set [4] is described as follows: Clearance in human liver microsomes. The note with it: read-out: CLH. Format: ADME, Microsome. A general note: Microsomes from liver hold many membrane-bound enzymes, among them those of drug oxidation.
Data set [5] can be described thus: Permeability across apical to basolateral side in human Caco2 cells. In kind it is ADME, cell-based. The note with it: Caco-2. In general terms: Caco-2 cells form a polarised layer with tight junctions and transporters.
Data set [6] in a line: Clearance in mouse liver microsomes. Format: ADME, Microsome. The note with it: read-out: CLH.

Molecules are shown by their SMILES. Converted amounts (≈) assume the structure as drawn. A value given as a limit tells only on which side of the number the result lay.

Turning to `Nc1ncc(-c2cccc(N3CCNCC3)c2)cc1C(=O)Nc1ccncc1`, the IC50 in data set [1] came to 0.34 µM. This molecule also showed a solubility in data set [2] of 164 µg/mL (≈ 438 µM). For the same molecule, the GI50 in data set [3] stood at 11.3 µM. The microsomal CLint worked out at 5.1 µL/min/mg in data set [4] and 71 µL/min/mg in data set [6]. The molecule also came in with a Papp A→B in data set [5] of 0.28 ×10⁻⁶ cm/s. Take `CCc1cc(NC(=O)c2nccnc2N)ccn1`: the IC50 in data set [1] amounted to 19.6 µM. In the case of `Nc1nccnc1C(=O)Nc1ccncc1Br`, the half-inhibitory concentration (IC50) in data set [1] was over 384 µM. Regarding `CC(C)(C)c1cc(NC(=O)c2nccnc2N)ccn1`, the 50% inhibitory concentration (IC50) in data set [1] was 24 µM.

With `NCc1cccc(-c2cnc(N)c(C(=O)Nc3ccncc3)c2)c1`, the IC50 in data set [1] came out at 0.71 µM.

Consider `Nc1ncc(-c2ccccc2)cc1C(=O)Nc1ccncc1`, for which, in data set [1], the IC50 is 32 µM. For the molecule `N[C@H](CNc1nc(-c2ccncc2)nc2sc3c(c12)CCCC3)Cc1ccccc1`, the concentration for 50% growth inhibition (GI50) in data set [3] was determined as 3.1 µM.

Take `Nc1nccnc1C(=O)Nc1ccnc(Br)c1`: in data set [1], the IC50 is over 384 µM. With `Nc1nccnc1C(=O)NCc1ccncc1`, the half-maximal inhibitory concentration (IC50) in data set [1] was over 384 µM. Take `Nc1ncc(Br)cc1C(=O)Nc1ccncc1`: the IC50 in data set [1] was over 384 µM. For the molecule `Nc1nccnc1C(=O)Nc1ccc(O)cc1`, the IC50 in data set [1] worked out at 76 µM. Regarding `Nc1nccnc1C(=O)Nc1ccnc2[nH]ccc12`, the IC50 in data set [1] was over 384 µM. On the same count and under the same terms, next, `Nc1nccnc1C(=O)Nc1ccncc1`: 23 µM; `Nc1nccnc1C(=O)Nc1ccc2[nH]ccc2c1`: 34 µM. Turning to `Nc1nccnc1C(=O)Nc1cccc(C2CC2)c1`, in data set [1], the IC50 was found to be 42.2 µM. With `Nc1ncccc1C(=O)Nc1ccncc1`, the IC50 in data set [1] was 22 µM. Turning to `Nc1ncc(-c2cccc(N3CCNCC3)c2)nc1C(=O)Nc1ccncc1`, the half-inhibitory concentration (IC50) in data set [1] came to 0.27 µM.

For the molecule `Nc1nccnc1C(=O)Nc1cccnc1`, the IC50 in data set [1] amounted to 77 µM. Take `NC(=O)c1cccc(-c2cnc(N)c(C(=O)Nc3ccncc3)c2)c1`: the IC50 in data set [1] was over 384 µM. Take `Cc1cc(NC(=O)c2nccnc2N)cc(C)n1`: the IC50 in data set [1] turned out to be 263 µM.

For orientation: IC50 means the concentration that inhibits the measured activity by half. What is called solubility is the dissolved amount per volume that the medium holds. Low readings indicate a poorly soluble substance, high ones a readily soluble substance. One may read the GI50 as the concentration giving 50% growth inhibition. For orientation: Papp A→B means the apparent permeability from the apical to the basolateral side of a cell layer. Read a low Papp A→B as slow passage.
